Measured values published in patent publication US8563729B2, “Thienopyridone derivatives as AMP-activated protein kinase (AMPK) activators” (Merck Patent GmbH, priority 2008, dated 2013).

Experiments:
H-2 Kb cells = test: Glucose uptake in H-2 Kb cells (in vitro cellular test); assay type: cell-based, mouse; details: H-2 Kb cells differentiated in muscle, 4 hours incubation, 2-deoxy-D-[1,2 3H] glucose uptake 10 min
Experimental: Glucose Uptake in H-2 Kb Cells (In Vitro Cellular Test)
The following cellular test allows the determination of the effect of AMPK activators such as compounds of formula (I) onto glucose uptake in a muscle cellular model.
H-1-2 Kb cells derived from heterozygous H-2 Kb tsA58 transgenic mouse were grown in 24-well in plates coated with matrigel and were cultured at 33° C. for 4 days under permissive conditions, as described previously by Fryer et al. (Diabetes 49 (12): 1978, 2000).
For differentiation in muscle, cells were switched to non-permissive culture conditions (37° C. in the absence of interferon-γ). After 3 days, cells were incubated for 4 hours in DMEM 1 g/l glucose culture medium containing different concentrations of the tested molecules. Then glucose uptake was measured by incubating the cells for 10 min with radiolabelled 2-deoxy-D-[1,2 ^3H] glucose. Glucose uptake was terminated by rapidly washing the plates 2 times with ice-cold NaCl 0.9%. The cells were then solubilized in 0.1N NaOH for 30 min. Radioactivity was determined by liquid scintillation counting.
N°: Number of the molecule
Activity (table III): Concentration of compound (I) for a glucose uptake equal or higher to glucose uptake induced by insulin (170 nM)
^++ or **concentration of compound (I) ≦10 micro Molar
^+ or *concentration of compound (I) >10 micro Molar

[1] = target: T1, AMPK protein (recombinant α1β1γ2) (Homo sapiens, UniProt Q13131+Q9Y478); test: AMPK enzymatic activity (Delfia, AMARA peptide substrate); assay type: biochemical; details: compound 30 μM vs AMP 30 μM; 125 μM ATP; ratio 90% or higher = direct activator
T1 construct: made in house; host or cells: E. coli
T1 sequence (Q13131 whole entry): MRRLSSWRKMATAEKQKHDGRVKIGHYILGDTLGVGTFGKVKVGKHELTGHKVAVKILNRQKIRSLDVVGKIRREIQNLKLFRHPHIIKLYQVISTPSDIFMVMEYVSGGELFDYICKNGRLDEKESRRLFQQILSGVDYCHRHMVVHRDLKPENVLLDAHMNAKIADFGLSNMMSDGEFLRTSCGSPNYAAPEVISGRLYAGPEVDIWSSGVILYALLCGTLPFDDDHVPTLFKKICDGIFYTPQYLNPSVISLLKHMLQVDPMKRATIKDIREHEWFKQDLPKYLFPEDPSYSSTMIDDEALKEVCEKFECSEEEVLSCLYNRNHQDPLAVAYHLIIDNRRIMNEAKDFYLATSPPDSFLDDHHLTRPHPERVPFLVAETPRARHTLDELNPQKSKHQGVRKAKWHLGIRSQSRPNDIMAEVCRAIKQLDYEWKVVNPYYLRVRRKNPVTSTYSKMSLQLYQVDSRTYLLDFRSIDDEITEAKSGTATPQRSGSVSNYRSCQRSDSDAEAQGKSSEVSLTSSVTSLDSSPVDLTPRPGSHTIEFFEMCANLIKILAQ
T1 sequence (Q9Y478 whole entry): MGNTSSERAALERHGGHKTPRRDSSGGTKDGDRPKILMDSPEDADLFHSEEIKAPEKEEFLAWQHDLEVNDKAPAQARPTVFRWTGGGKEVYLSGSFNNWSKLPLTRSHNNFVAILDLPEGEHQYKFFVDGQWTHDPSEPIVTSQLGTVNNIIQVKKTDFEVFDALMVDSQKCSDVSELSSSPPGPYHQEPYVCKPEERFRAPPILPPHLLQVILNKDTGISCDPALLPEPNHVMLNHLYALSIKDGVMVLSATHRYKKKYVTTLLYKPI
T1 sequence (Q9UGJ0 whole entry partner): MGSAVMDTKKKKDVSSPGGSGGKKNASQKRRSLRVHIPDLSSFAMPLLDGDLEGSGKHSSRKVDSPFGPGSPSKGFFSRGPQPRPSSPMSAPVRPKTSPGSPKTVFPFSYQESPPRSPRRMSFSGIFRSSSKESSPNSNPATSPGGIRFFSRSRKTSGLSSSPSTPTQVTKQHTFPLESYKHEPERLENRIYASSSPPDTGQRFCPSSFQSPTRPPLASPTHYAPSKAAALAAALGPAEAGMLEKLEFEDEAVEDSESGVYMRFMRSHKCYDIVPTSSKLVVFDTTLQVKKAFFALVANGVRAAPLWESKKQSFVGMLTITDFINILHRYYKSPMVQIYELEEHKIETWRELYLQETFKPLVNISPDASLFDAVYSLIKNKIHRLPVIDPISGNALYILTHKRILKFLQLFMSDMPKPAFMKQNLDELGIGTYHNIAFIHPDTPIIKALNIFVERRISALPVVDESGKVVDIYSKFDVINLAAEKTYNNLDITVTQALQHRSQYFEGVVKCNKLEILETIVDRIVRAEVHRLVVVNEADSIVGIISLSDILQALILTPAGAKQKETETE
Outline: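 Human α1β1γ2 AMPK expressed in E. coli, reactivated in vitro by LKB1, assayed in 50 mM Hepes pH 7.4 with 125 μM ATP and AMARA peptide for 30 min at room temperature; phosphorylation detected by Delfia anti-phosphoserine antibody. Activity = % of basal control at 30 μM compound relative to that of 30 μM AMP.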

SMILES | Activity (table III): Concentration of compound (I) for a glucose uptake equal or higher to glucose uptake induced by insulin (170 nM) (H-2 Kb cells) | activity: Ratio between the % of control (basal activity) of compound of formula (I) at 30 μM and the % of control (basal activity) of AMP at 30 μM [1]
Cc1ccc(-c2c(Cl)sc3[nH]c(=O)c(-c4cccnc4)c(O)c23)c(O)c1 [Compound 195] | + (^+ or *concentration of compound (I) >10 micro Molar) | 156%
O=c1[nH]c2scc(-c3ccccc3)c2c(O)c1-c1ccc(O)cc1 [Compound 20] | * (^+ or *concentration of compound (I) >10 micro Molar) | 99%
O=c1[nH]c2sc(Cl)c(-c3ccccc3)c2c(O)c1-c1ccc(Cl)cc1 [Compound 173] | ++ (^++ or **concentration of compound (I) ≦10 micro Molar) | 160%
Cc1ccc(-c2c(F)sc3[nH]c(=O)c(-c4ccc(F)cc4)c(O)c23)c(O)c1F [Compound 211] | + (^+ or *concentration of compound (I) >10 micro Molar) | 149%
Cc1ccc(-c2csc3[nH]c(=O)c(-c4ccccc4)c(O)c23)c(O)c1 [Compound 83, 4-hydroxy-3-(2-hydroxy-4-methylphenyl)-5-phenyl-6,7-dihydro-thieno[2,3-b]pyridin-6-one] | * (^+ or *concentration of compound (I) >10 micro Molar) | 403%
COc1ccc(F)cc1-c1c(Cl)sc2[nH]c(=O)c(-c3ccccc3)c(O)c12 [Compound 189] | + (^+ or *concentration of compound (I) >10 micro Molar) | 175%
O=c1[nH]c2scc(-c3ccc(F)cc3)c2c(O)c1-c1ccccc1 [Compound 27] | * (^+ or *concentration of compound (I) >10 micro Molar) | 114%
COc1ccc(-c2c(O)c3c(-c4ccccc4)c(Cl)sc3[nH]c2=O)cn1 [Compound 167] | ++ (^++ or **concentration of compound (I) ≦10 micro Molar) | 592%
O=c1[nH]c2sc(Cl)c(-c3ccccc3)c2c(O)c1-c1cccc(C(F)(F)F)c1 [Compound 143] | * (^+ or *concentration of compound (I) >10 micro Molar) | 99%
O=c1[nH]c2sc(Cl)c(-c3ccccc3)c2c(O)c1-c1ccc(C(F)(F)F)cc1 [Compound 171] | + (^+ or *concentration of compound (I) >10 micro Molar) | 147%
CN(C)c1ccc(-c2c(O)c3c(-c4ccccc4)csc3[nH]c2=O)cc1 [Compound 22] | ** (^++ or **concentration of compound (I) ≦10 micro Molar) | 121%
O=c1[nH]c2sc(Cl)c(-c3ccc(F)cc3O)c2c(O)c1-c1ccccc1 [Compound 111] | * (^+ or *concentration of compound (I) >10 micro Molar) | 136%
O=c1[nH]c2sc(Cl)c(-c3ccc4c(Cl)cccc4c3O)c2c(O)c1-c1ccccc1 [Compound 184] | ++ (^++ or **concentration of compound (I) ≦10 micro Molar) | 167%
COc1ccc(-c2c(Cl)sc3[nH]c(=O)c(-c4ccccc4)c(O)c23)cc1 [Compound 139] | ** (^++ or **concentration of compound (I) ≦10 micro Molar) | 114%
Cc1ccc(-c2c(O)c3c(-c4ccc(F)cc4O)csc3[nH]c2=O)cc1 [Compound 188] | + (^+ or *concentration of compound (I) >10 micro Molar) | 183%
COc1cccc(-c2c(O)c3c(-c4ccccc4)c(Cl)sc3[nH]c2=O)c1 [Compound 149] | ** (^++ or **concentration of compound (I) ≦10 micro Molar) | 120%
O=c1[nH]c2sc(Cl)c(-c3ccccc3)c2c(O)c1-c1cccc(O)c1 [Compound 148] | ** (^++ or **concentration of compound (I) ≦10 micro Molar) | 121%
Cc1ccc(-c2csc3[nH]c(=O)c(-c4ccc(F)cc4)c(O)c23)c(O)c1F [Compound 204] | + (^+ or *concentration of compound (I) >10 micro Molar) | 189%
O=c1[nH]c2sc(Cl)c(-c3ccccc3)c2c(O)c1-c1ccsc1 [Compound 169] | ++ (^++ or **concentration of compound (I) ≦10 micro Molar) | 196%
O=c1[nH]c2sc(Cl)c(-c3ccc(F)cc3)c2c(O)c1-c1ccccc1 [Compound 140] | ** (^++ or **concentration of compound (I) ≦10 micro Molar) | 123%
CCOc1cccc(-c2c(Cl)sc3[nH]c(=O)c(-c4ccccc4)c(O)c23)c1 [Compound 127] | * (^+ or *concentration of compound (I) >10 micro Molar) | 122%
